The numbers were not newly measured in patent US20030031676A1, “Conjugate compounds for treating atheroma and other diseases” (Pharmacyclics, Inc., priority 1999, published 2003), which cites them from elsewhere.

For the data set the following is noted: animal models.

lutetium (III) texaphyrin: the radiation sensitization activity result was “lack of radiation sensitization activity”.
